Data taken from PubChem BioAssay (NCI).
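Grown in 96-well plates, cells were treated for 48 hours with each compound at five concentrations. Insufficient inhibition: endpoint recorded as highest concentration tested. Abbreviation: GI50, concentration required for 50% inhibition of growth. TGI: concentration producing complete growth inhibition.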

Tests used:
Assay in all cases: DTP human tumour cell line panel, 48 h
SK-MEL-28 melanoma = system: SK-MEL-28 melanoma
SNB-19 CNS = system: SNB-19 CNS
COLO 205 colon = system: COLO 205 colon
OVCAR-8 ovarian = system: OVCAR-8 ovarian
M14 melanoma = system: M14 melanoma
SF-539 CNS = system: SF-539 CNS
OVCAR-3 ovarian = system: OVCAR-3 ovarian
OVCAR-5 ovarian = system: OVCAR-5 ovarian
HL-60(TB) leukemia = system: HL-60(TB) leukemia
T-47D breast = system: T-47D breast

Row | SMILES | TGI (SK-MEL-28 melanoma) | TGI (SNB-19 CNS) | TGI (COLO 205 colon) | TGI (OVCAR-8 ovarian) | TGI (M14 melanoma) | TGI (SF-539 CNS) | TGI (OVCAR-3 ovarian) | TGI (OVCAR-5 ovarian) | TGI (HL-60(TB) leukemia) | TGI (T-47D breast) | GI50 (SK-MEL-28 melanoma) | GI50 (SNB-19 CNS) | GI50 (COLO 205 colon) | GI50 (OVCAR-8 ovarian) | GI50 (SF-539 CNS) | GI50 (OVCAR-3 ovarian) | GI50 (OVCAR-5 ovarian) | GI50 (HL-60(TB) leukemia) | GI50 (T-47D breast)
1 | COc1ccccc1-c1cc(=O)c2cccnc2[nH]1 | > 100 µM | > 100 µM | 96 µM | > 100 µM | > 100 µM | > 100 µM | > 100 µM | > 100 µM | > 100 µM | > 100 µM |  |  |  |  |  |  |  |  | 
2 | Cc1cc(S(=O)(=O)NC2=NCc3c(F)cccc3N2)c(S)cc1Cl | > 100 µM | > 100 µM | > 100 µM | > 100 µM | > 100 µM | > 100 µM | > 100 µM | > 100 µM | > 100 µM | > 100 µM |  |  |  |  |  |  |  |  | 
3 | Oc1ccccc1/C=N/c1nc(-c2ccccc2)cs1 | > 100 µM | > 100 µM | > 100 µM | > 100 µM |  | 94.3 µM | > 100 µM | > 100 µM | > 100 µM | > 100 µM | > 100 µM | > 100 µM | 57.7 µM | 42.9 µM | 27.5 µM | 30 µM | 32.2 µM | 36 µM | > 100 µM
4 | CC(C)(C)C(=O)C(N)C(=O)C(C)(C)C | > 100 µM | > 100 µM | > 100 µM | > 100 µM | > 100 µM | > 100 µM |  | > 100 µM | > 100 µM | > 100 µM |  |  |  |  |  |  |  |  | 
5 | N#CC(c1cc(Cl)ncn1)c1nc2cc(C(F)(F)F)ccc2s1 (stereo unspecified) | 37.4 µM | 22.6 µM | 10.8 µM | 13.5 µM | 18.7 µM | 20.9 µM | 17.4 µM | 34.3 µM |  | > 100 µM |  |  |  |  |  |  |  |  | 
6 | CC1=NN(c2cc(Cl)c(S(=O)(=O)O)cc2Cl)C2(C1)C(Cl)C(=O)N2c1nc2ccccc2s1 (stereo unspecified) | > 100 µM | > 100 µM | > 100 µM | > 100 µM | > 100 µM | > 100 µM |  | > 100 µM | > 100 µM | > 100 µM |  |  |  |  |  |  |  |  | 
7 | O=C(c1ccccc1)C1C(c2ccccc2[N+](=O)[O-])N1C1CCCCC1 (stereo unspecified) | > 57.7 µM | 32.3 µM | 20.4 µM | 3.97 µM | 23.9 µM | 4.77 µM | 7.82 µM | 36.9 µM |  | 7.57 µM |  |  |  |  |  |  |  |  | 
8 | CCOC(=O)CCC(C(=O)OCC)n1nnc2cc(Nc3c(C)[n+]([O-])c4cc(Cl)ccc4[n+]3[O-])ccc21 (stereo unspecified) |  | > 100 µM | > 100 µM | > 100 µM | > 100 µM | > 100 µM | > 100 µM | > 100 µM | > 100 µM | > 100 µM |  |  |  |  |  |  |  |  | 
9 | Cc1cc(Br)c(O)c(-c2cscn2)c1 |  | 31.2 µM | 51.8 µM | 42.1 µM | 44 µM | 37.3 µM | > 100 µM | 36.4 µM | 12.7 µM |  |  |  |  |  |  |  |  |  | 
10 | O=C(CCCCCCCCC(=O)N1C(=O)CC(=O)N(c2ccc(Cl)cc2)C1=S)N1C(=O)CC(=O)N(c2ccc(Cl)cc2)C1=S | > 100 µM | > 100 µM | > 100 µM | > 100 µM | > 100 µM | > 100 µM | > 100 µM | > 100 µM |  | > 100 µM |  |  |  |  |  |  |  |  | 
11 | O=c1[nH]c2ccccc2c(=O)n1/N=C\c1ccccc1O | > 100 µM | > 100 µM | > 100 µM |  | > 100 µM | > 100 µM | > 100 µM | > 100 µM | > 100 µM | > 100 µM |  |  |  |  |  |  |  |  | 
12 | FC(F)(Sc1ncccn1)c1nc2ccccc2o1 | > 100 µM |  | > 100 µM | > 100 µM | > 100 µM | > 100 µM | > 100 µM | > 100 µM |  | > 100 µM |  |  |  |  |  |  |  |  | 
13 | CN(CC(=O)O)c1ncc2c(n1)-c1ccccc1CC2 | > 100 µM | > 100 µM | > 100 µM | > 100 µM | > 100 µM | > 100 µM | > 100 µM | > 100 µM | > 100 µM |  |  |  |  |  |  |  |  |  | 
14 | COc1cc(CNc2nc3c(NC(C)=O)cc(C(F)(F)F)cc3nc2-c2ccccc2)cc(OC)c1OC | > 100 µM | > 100 µM | > 100 µM | > 100 µM |  | > 100 µM | > 100 µM | > 100 µM |  |  |  |  |  |  |  |  |  |  | 
15 | Nc1ncnc2c1ncn2C1C(O)C=C(CO)C1O (stereo unspecified) |  | > 625 µM | > 625 µM | > 625 µM |  | > 625 µM | > 625 µM |  | > 625 µM |  |  |  |  |  |  |  |  |  | 
16 | C/C(=C\C(=O)O)C(=O)N(C)c1ccccc1I | > 100 µM | > 100 µM | > 100 µM | > 100 µM | > 100 µM |  | > 100 µM | > 100 µM |  | > 100 µM |  |  |  |  |  |  |  |  | 
17 | CCn1c(-c2cc3ccccc3cc2OC(C)=O)n[nH]c1=S | > 100 µM |  |  | > 100 µM | > 100 µM | > 100 µM | 67.8 µM | > 100 µM | 19.5 µM | 43.3 µM |  |  |  |  |  |  |  |  | 
18 | COC(=O)c1c2c(cc3c1CC1(Cc4cc5c(cc4C1)CCCC5)C3)CCCC2 |  |  | > 100 µM | > 100 µM | > 100 µM | > 100 µM | > 100 µM | > 100 µM | > 100 µM | > 100 µM |  |  |  |  |  |  |  |  | 
19 | Cc1c(-c2ccccc2)oc(=O)c2ccccc12 | 37.3 µM | > 100 µM | 33.7 µM | 93 µM | 51.2 µM | 36.2 µM | 41.8 µM | 80.9 µM |  | 75.7 µM |  |  |  |  |  |  |  |  | 
20 | c1csc(-c2cc(-c3ccsc3)cs2)c1 | > 100 µM |  | > 100 µM |  | > 100 µM | > 100 µM | > 100 µM | > 100 µM | > 100 µM | > 100 µM |  |  |  |  |  |  |  |  | 
21 | Nc1c(-c2ccccc2)c2ccc([N+](=O)[O-])cc2c(=O)n1-c1cccc(C(=O)O)c1 | > 100 µM | > 100 µM |  | > 100 µM | > 100 µM | > 100 µM | > 100 µM | > 100 µM | > 100 µM | > 100 µM |  |  |  |  |  |  |  |  | 
22 | CCCCCCCCCCCCCCCCOC[C@H](COC(c1ccccc1)(c1ccccc1)c1ccccc1)O[P+](=S)OC (stereo partly specified) |  | > 100 µM | > 100 µM | > 100 µM | > 100 µM | > 100 µM | > 100 µM | > 100 µM | > 100 µM | > 100 µM |  |  |  |  |  |  |  |  | 
23 | COc1cc(-c2cc(OC)c(OC)c3ccc(Br)cc23)c2cc(Br)ccc2c1OC | 45.7 µM | > 100 µM | > 100 µM |  | 44.7 µM | 38.8 µM | 46.5 µM | 39.2 µM |  | 95.4 µM |  |  |  |  |  |  |  |  | 
